Measured values taken from patent US7547690B2, “Compounds for the treatment of Hepatitis C” (Bristol-Myers Squibb Company, priority 2007, dated 2009).

Assays:
HCV NS5B = target: T1, HCV NS5B (Hepatitis C virus genotype 1b, UniProt Q9WMX2); assay: HCV NS5B RdRp enzyme assay (standard / modified); format: biochemical; details: HCV RdRp genotype 1b; standard or modified assay not specified; read-out: IC50
T1 construct: The protein was expressed with an 18 amino acid C-terminal truncation to enhance the solubility; made in house; host or cells: E. coli BL21(DE3)
How it was run: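 Genotype 1b NS5B, 18-aa C-terminal truncation, E. coli-expressed; polyA template with biotin-oligo-dT12 primer, 3H-UTP (0.29 μM UTP), pH 7.5 Hepes, 2% DMSO, 30 °C, SPA read. Standard: 28 nM enzyme, 6 nM template, 180 nM primer, 60 min. Modified: 1.75 nM enzyme, 0.36 nM template, 20 nM bead-precaptured primer, 4 h; IC50 from seven concentrations, four-parameter fit.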

HCV replicon cells = assay: HCV replicon FRET / luciferase assay; format: cell-based; details: Hepatitis C virus, 50% reduction in FRET or luciferase activity in HCV replicon cells; read-out: EC50
How it was run: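 HCV replicon cells (with or without Renilla luciferase reporter) incubated with titrated compounds at 37° C; cytotoxicity read by Alamar blue. Replicon activity then read by NS3 cleavage of EDANS/DABCYL FRET peptide (20 μM final, 340/490 nm kinetic) or by luciferase; background from highest control-inhibitor wells subtracted; EC50 = concentration giving 50% signal reduction.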

T1 sequence (Q9WMX2 2420-2992): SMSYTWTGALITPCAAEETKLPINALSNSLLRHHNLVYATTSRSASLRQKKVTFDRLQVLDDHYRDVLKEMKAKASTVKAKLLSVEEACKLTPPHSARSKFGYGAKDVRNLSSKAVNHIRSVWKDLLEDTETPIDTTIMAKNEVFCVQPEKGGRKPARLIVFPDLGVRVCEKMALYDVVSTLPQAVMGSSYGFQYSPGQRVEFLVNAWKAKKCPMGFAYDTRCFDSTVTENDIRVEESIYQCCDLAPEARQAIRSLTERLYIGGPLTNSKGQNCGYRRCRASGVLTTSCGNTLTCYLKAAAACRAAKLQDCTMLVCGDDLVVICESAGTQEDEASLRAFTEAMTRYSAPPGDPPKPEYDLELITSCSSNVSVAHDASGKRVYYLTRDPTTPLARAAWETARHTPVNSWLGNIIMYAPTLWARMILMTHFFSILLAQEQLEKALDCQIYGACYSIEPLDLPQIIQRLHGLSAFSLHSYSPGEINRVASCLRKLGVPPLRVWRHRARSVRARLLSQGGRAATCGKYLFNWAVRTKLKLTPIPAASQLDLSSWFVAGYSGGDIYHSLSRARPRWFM

Row | SMILES | IC50 (HCV NS5B) [nM] | EC50 (HCV replicon cells) [nM]
1 | COc1ccc2c(c1)[C@@H]1C[C@]1(C(=O)N1CC3CC1CN3C)Cn1c-2c(C2CCCCC2)c2ccc(C(=O)NS(=O)(=O)N(C)C)cc21 (stereo partly drawn) | < 20 | 2.4 to 500
2 | COc1ccc2c(c1)[C@H]1C[C@@]1(C(=O)N1CC3CC1CN3C)Cn1c-2c(C2CCCCC2)c2ccc(C(=O)NS(=O)(=O)N(C)C)cc21 (stereo partly drawn) | 2.4 to 500 | 2.4 to 500
3 | COc1ccc2c(c1)C1CC1(C(=O)N1CCN3CCC1C3)Cn1c-2c(C2CCCCC2)c2ccc(C(=O)NS(=O)(=O)N(C)C)cc21 (stereo not drawn) | 2.4 to 500 | 2.4 to 500
4 | COc1ccc2c(c1)C1CC1(C(=O)N1C[C@H]3C[C@@H](C1)c1cccc(=O)n1C3)Cn1c-2c(C2CCCCC2)c2ccc(C(=O)NS(=O)(=O)N(C)C)cc21 (stereo partly drawn) | < 70 | 2.4 to 500
5 | COc1ccc2c(c1)C1CC1(C(=O)N1[C@@H]3C[C@H]1CN(C(=O)N(C)C)C3)Cn1c-2c(C2CCCCC2)c2ccc(C(=O)NS(=O)(=O)N(C)C)cc21 (stereo partly drawn) | 2.4 to 500 | 2.4 to 500
6 | COc1ccc2c(c1)C1CC1(C(=O)N1[C@@H]3C[C@H]1CN(C(C)=O)C3)Cn1c-2c(C2CCCCC2)c2ccc(C(=O)NS(=O)(=O)N(C)C)cc21 (stereo partly drawn) | 2.4 to 500 | 2.4 to 500
7 | COc1ccc2c(c1)[C@@H]1C[C@]1(C(=O)N1C[C@@H]3C[C@H]1CN3C(=O)OC(C)(C)C)Cn1c-2c(C2CCCCC2)c2ccc(C(=O)NS(=O)(=O)N(C)C)cc21 | 2.4 to 500 | 2.4 to 500
8 | COc1ccc2c(c1)[C@@H]1C[C@]1(C(=O)N1[C@@H]3C[C@H]1CN(Cc1ccccc1)C3)Cn1c-2c(C2CCCCC2)c2ccc(C(=O)NS(=O)(=O)N(C)C)cc21 | 2.4 to 500 | 2.4 to 500
9 | COc1ccc2c(c1)[C@@H]1C[C@]1(C(=O)N1[C@@H]3C[C@H]1CN(C)C3)Cn1c-2c(C2CCCCC2)c2ccc(C(=O)NS(=O)(=O)N(C)C)cc21 | 2.4 to 500 | 2.4 to 500
10 | COc1ccc2c(c1)C1CC1(C(=O)N1C[C@@H]3C[C@H]1CN3C(=O)OC(C)(C)C)Cn1c-2c(C2CCCCC2)c2ccc(C(=O)NS(=O)(=O)C3CC3)cc21 (stereo partly drawn) | 2.4 to 500 | 2.4 to 500
11 | COc1ccc2c(c1)C1CC1(C(=O)N1C3CC1CN(Cc1ccccc1)C3)Cn1c-2c(C2CCCCC2)c2ccc(C(=O)NS(=O)(=O)C3CC3)cc21 (stereo not drawn) | 2.4 to 500 | 2.4 to 500
12 | COc1ccc2c(c1)C1CC1(C(=O)N1CCN3CCC1CC3)Cn1c-2c(C2CCCCC2)c2ccc(C(=O)NS(=O)(=O)N3CCN(C)CC3)cc21 (stereo not drawn) | 2.4 to 500 | 2.4 to 500
13 | COc1ccc2c(c1)C1CC1(C(=O)N1C3CNCC1C3)Cn1c-2c(C2CCCCC2)c2ccc(C(=O)NS(=O)(=O)C3CC3)cc21 (stereo not drawn) | 2.4 to 500 | 2.4 to 500
14 | CCN1C[C@H]2C[C@@H]1CN2C(=O)C12CC1c1cc(OC)ccc1-c1c(C3CCCCC3)c3ccc(C(=O)NS(N)(=O)=O)cc3n1C2 (stereo partly drawn) | 2.4 to 500 | 2.4 to 500
15 | COc1ccc2c(c1)C1CC1(C(=O)N1C[C@H]3C[C@@H]1CN3CC(C)C)Cn1c-2c(C2CCCCC2)c2ccc(C(=O)NS(N)(=O)=O)cc21 (stereo partly drawn) | 2.4 to 500 | 2.4 to 500
16 | COc1ccc2c(c1)C1CC1(C(=O)N1C[C@H]3C[C@@H]1CN3C)Cn1c-2c(C2CCCCC2)c2ccc(C(=O)NS(N)(=O)=O)cc21 (stereo partly drawn) | 2.4 to 500 | 2.4 to 500
17 | COc1ccc2c(c1)C1CC1(C(=O)N1C[C@H]3C[C@@H]1CN3C(=O)OC(C)(C)C)Cn1c-2c(C2CCCCC2)c2ccc(C(=O)NS(=O)(=O)C(C)C)cc21 (stereo partly drawn) | 2.4 to 500 | 2.4 to 500
18 | COc1ccc2c(c1)C1CC1(C(=O)N1CCN3CCC1CC3)Cn1c-2c(C2CCCCC2)c2ccc(C(=O)NS(C)(=O)=O)cc21 (stereo not drawn) | 2.4 to 500 | 2.4 to 500
19 | COc1ccc2c(c1)C1CC1(C(=O)N1C[C@H]3C[C@@H]1CN3C(=O)OC(C)(C)C)Cn1c-2c(C2CCCCC2)c2ccc(C(=O)NS(C)(=O)=O)cc21 (stereo partly drawn) | 2.4 to 500 | 2.4 to 500
20 | CCN1C[C@H]2C[C@@H]1CN2C(=O)C12CC1c1cc(OC)ccc1-c1c(C3CCCCC3)c3ccc(C(=O)NS(C)(=O)=O)cc3n1C2 (stereo partly drawn) | 2.4 to 500 | 2.4 to 500
21 | COc1ccc2c(c1)C1CC1(C(=O)N1C[C@@H]3C[C@H]1CN3C)Cn1c-2c(C2CCCCC2)c2ccc(C(=O)NS(C)(=O)=O)cc21 (stereo partly drawn) | 2.4 to 500 | 2.4 to 500
22 | COc1ccc2c(c1)C1CC1(C(=O)N1[C@@H]3C[C@H]1CN(C)C3)Cn1c-2c(C2CCCCC2)c2ccc(C(=O)NS(N)(=O)=O)cc21 (stereo partly drawn) | 2.4 to 500 | 2.4 to 500
23 | COc1ccc2c(c1)C1CC1(C(=O)N1[C@@H]3C[C@H]1CN(C)C3)Cn1c-2c(C2CCCCC2)c2ccc(C(=O)NS(C)(=O)=O)cc21 (stereo partly drawn) | 2.4 to 500 | 2.4 to 500
24 | COc1ccc2c(c1)C1CC1(C(=O)N1[C@@H]3C[C@H]1CN(C)C3)Cn1c-2c(C2CCCCC2)c2ccc(C(=O)NS(=O)(=O)N3CCC3)cc21 (stereo partly drawn) | 2.4 to 500 | 2.4 to 500

Row | SMILES | IC50 (HCV NS5B) [nM] | EC50 (HCV replicon cells) [nM]
25 | COc1ccc2c(c1)C1CC1(C(=O)N1[C@@H]3C[C@H]1CN(C)C3)Cn1c-2c(C2CCCCC2)c2ccc(C(=O)NS(=O)(=O)C3CC3)cc21 (stereo partly drawn) | 2.4 to 500 | 2.4 to 500
26 | COc1ccc2c(c1)C1CC1(C(=O)N1CCN3CCC1CC3)Cn1c-2c(C2CCCCC2)c2ccc(C(=O)NS(=O)(=O)C(C)C)cc21 (stereo not drawn) | 2.4 to 500 | 2.4 to 500
27 | COc1ccc2c(c1)C1CC1(C(=O)N1C[C@@H]3C[C@H]1CN3C)Cn1c-2c(C2CCCCC2)c2ccc(C(=O)NS(=O)(=O)N3CCC3)cc21 (stereo partly drawn) | 2.4 to 500 | 2.4 to 500
28 | COc1ccc2c(c1)C1CC1(C(=O)N1C[C@H]3C[C@@H]1CN3C(=O)OC(C)(C)C)Cn1c-2c(C2CCCCC2)c2ccc(C(=O)NS(=O)(=O)N3CCC3)cc21 (stereo partly drawn) | 2.4 to 500 | 2.4 to 500
29 | CCN1C[C@H]2C[C@@H]1CN2C(=O)C12CC1c1cc(OC)ccc1-c1c(C3CCCCC3)c3ccc(C(=O)NS(=O)(=O)N4CCC4)cc3n1C2 (stereo partly drawn) | 2.4 to 500 | 2.4 to 500
30 | COc1ccc2c(c1)C1CC1(C(=O)N1C[C@H]3C[C@@H]1CN3CC(C)C)Cn1c-2c(C2CCCCC2)c2ccc(C(=O)NS(=O)(=O)N3CCC3)cc21 (stereo partly drawn) | 2.4 to 500 | 2.4 to 500
31 | COc1ccc2c(c1)C1CC1(C(=O)N1C[C@@H]3C[C@H]1CN3C)Cn1c-2c(C2CCCCC2)c2ccc(C(=O)NS(=O)(=O)N(C)C)cc21 (stereo partly drawn) | < 20 | 2.4 to 500
32 | COc1ccc2c(c1)C1CC1(C(=O)N1C3COCC1CN(C)C3)Cn1c-2c(C2CCCCC2)c2ccc(C(=O)NS(=O)(=O)N(C)C)cc21 (stereo not drawn) | 2.4 to 500 | 2.4 to 500
33 | CCS(=O)(=O)NC(=O)c1ccc2c(C3CCCCC3)c3n(c2c1)CC1(C(=O)N2C4CCCC2CN(C)C4)CC1c1cc(OC)ccc1-3 (stereo not drawn) | 2.4 to 500 | 2.4 to 500
34 | CCCS(=O)(=O)NC(=O)c1ccc2c(C3CCCCC3)c3n(c2c1)CC1(C(=O)N2C4CCCC2CN(C)C4)CC1c1cc(OC)ccc1-3 (stereo not drawn) | 2.4 to 500 | 2.4 to 500
35 | COc1ccc2c(c1)C=C(C(=O)N1C3CCCC1CN(C)C3)Cn1c-2c(C2CCCCC2)c2ccc(C(=O)NS(=O)(=O)N(C)C)cc21 | 2.4 to 500 | 2.4 to 500
36 | COc1ccc2c(c1)C1CC1(C(=O)N1C3CCCC1CN(C)C3)Cn1c-2c(C2CCCCC2)c2ccc(C(=O)NS(=O)(=O)N3CCOCC3)cc21 (stereo not drawn) | 2.4 to 500 | 2.4 to 500
37 | COc1ccc2c(c1)C1CC1(C(=O)N1C3CC1CN(C)C3)Cn1c-2c(C2CCCCC2)c2ccc(C(=O)NS(=O)(=O)CC3CC3)cc21 (stereo not drawn) | 2.4 to 500 | 2.4 to 500
38 | COc1ccc2c(c1)C1CC1(C(=O)N1C3CC1CN(C)C3)Cn1c-2c(C2CCCCC2)c2ccc(C(=O)NS(=O)(=O)C3CCOCC3)cc21 (stereo not drawn) | 2.4 to 500 | 2.4 to 500
39 | COc1ccc2c(c1)C1CC1(C(=O)N1C3CC1CN(C)C3)Cn1c-2c(C2CCCCC2)c2ccc(C(=O)NS(=O)(=O)CC3CCCO3)cc21 (stereo not drawn) | 2.4 to 500 | 2.4 to 500
40 | COc1ccc2c(c1)C1CC1(C(=O)N1C3COC[C@@H]1CN(C)C3)Cn1c-2c(C2CCCCC2)c2ccc(C(=O)NS(=O)(=O)CC(C)C)cc21 (stereo partly drawn) | 2.4 to 500 | 2.4 to 500
41 | COc1ccc2c(c1)C1CC1(C(=O)N1C3COC[C@@H]1CN(C)C3)Cn1c-2c(C2CCCCC2)c2ccc(C(=O)NS(=O)(=O)C(C)C)cc21 (stereo partly drawn) | 2.4 to 500 | 2.4 to 500
42 | COc1ccc2c(c1)C1CC1(C(=O)N1C3COC[C@@H]1CN(C)C3)Cn1c-2c(C2CCCCC2)c2ccc(C(=O)NS(=O)(=O)C3CCCC3)cc21 (stereo partly drawn) | 2.4 to 500 | 2.4 to 500
43 | COc1ccc2c(c1)C1CC1(C(=O)N1C3COC[C@@H]1CN(C)C3)Cn1c-2c(C2CCCCC2)c2ccc(C(=O)NS(=O)(=O)C3CCCCC3)cc21 (stereo partly drawn) | 2.4 to 500 | 2.4 to 500
44 | COc1ccc2c(c1)C1CC1(C(=O)N1C3COC[C@@H]1CN(C)C3)Cn1c-2c(C2CCCCC2)c2ccc(C(=O)NS(=O)(=O)CC(F)(F)F)cc21 (stereo partly drawn) | 2.4 to 500 | 2.4 to 500
45 | COc1ccc2c(c1)C1CC1(C(=O)N1C3COC[C@@H]1CN(C)C3)Cn1c-2c(C2CCCCC2)c2ccc(C(=O)NS(=O)(=O)CCC(F)(F)F)cc21 (stereo partly drawn) | 2.4 to 500 | 2.4 to 500
46 | COc1ccc2c(c1)[C@@H]1C[C@]1(C(=O)N1C3CCC1CN(C)CC3)Cn1c-2c(C2CCCCC2)c2ccc(C(=O)NS(=O)(=O)C(C)C)cc21 (stereo partly drawn) | 2.4 to 500 | 2.4 to 500
47 | COc1ccc2c(c1)[C@@H]1C[C@]1(C(=O)N1C3CN(C)CC1CN(C(C)=O)C3)Cn1c-2c(C2CCCCC2)c2ccc(C(=O)NS(=O)(=O)N(C)C)cc21 | 2.4 to 500 | 2.4 to 500
48 | COCCN1CC2CCC1CN2C(=O)[C@]12C[C@H]1c1cc(OC)ccc1-c1c(C3CCCCC3)c3ccc(C(=O)NS(=O)(=O)C(C)C)cc3n1C2 (stereo partly drawn) | 2.4 to 500 | 2.4 to 500
